16 compounds from patent US20160052926A1, “NOVEL PYRIMIDINE AND PYRIDINE COMPOUNDS AND USAGE THEREOF” (HUTCHISON MEDIPHARMA LIMITED, priority 2013, published 2016) can be followed below.

One test deals with Recombinant human FGFR1 (Homo sapiens, UniProt P11362). The test can be described thus: Transcreener Kinase Assay of FGFR1. The test is classed as biochemical. Particulars: read-out: FGFR1 (FP) IC50. As for the experimental part: Transcreener Kinase Assay of FGFR1
(§1) Prepare Solution • Compounds were solved in DMSO and were diluted with assay buffer to 5 folds of final concentration keeping the DMSO concentration at 5%. Further dilution are needed to make final concentrations are at 1, 0.33, 0.11, 0.037, 0.012, 0.004, 0.0014, 0.0005 μM; (the final concentration of DMSO is 1%). • Enzyme/Substrate stock Preparation: Recombinant human FGFR1 and Poly E4Y are both diluted in assay buffer.
Enzymatic Reaction • In a 96-well plate, Add 5 μL of compound or control. (positive control: 5 μL of 5% DMSO; negative control: 5 μL of 500 mM EDTA) into desired wells; • Add 10 μL of Enzyme/Substrate stock into each well; • Add 10 μL of ATP Diluents to initiate the enzyme reaction and votex the plate immediately on a plate shaker; • For the wells to make standard curve, add 5 μL of 5% DMSO, 10 μL of assay buffer and 10 μL of ATP standard curve stock. • Incubate the plate for 45 min at 28[…] on a plate shaker in a low speed.
Excitation wavelength: 610 nm, Emission wavelength: 670 nm.
(§2) • [ADP] in Compound well represents the ADP concentration in compound well. • [ADP] in Positive control well represents the ADP concentration in 5% DMSO well • Conversion of mP value to ADP concentration is calculated based on the formula which determined by standard curve. And mP value is measured by following the instruction provided by BellBrook Labs. (www.bellbrooklabs.com). 6. IC50: calculated using XL-Fit 2.0 software.

Another test addresses Recombinant human FGFR2 (Homo sapiens, UniProt P21802). The test can be described thus: Transcreener Kinase Assay of FGFR2. It counts as biochemical. Particulars: read-out: FGFR2 (FP) IC50. The protocol:
Transcreener Kinase Assay of FGFR2
as §1, with “•” for “Prepare Solution •”, “FGFR2” for “FGFR1”, “buffer. The final concentration is 0.3 ng/μL for FGFR2 and 62.5 ng/μL for Poly E4Y. The mixture is being kept in ice before use; • Prepare ATP Diluents, 10 mM ATP is diluted in assay buffer, the final concentration is 25 μM; • Prepare ADP Diluents: diluted ADP (500 μM) in assay buffer, the final concentration is 25 μM; • Prepare ATP standard curve stock as following:” for “buffer.”
• In a 96-well plate, Add 5 μL of compound or control. (positive control: 5 μL of 5% DMSO; negative control: 5 μL of 500 mM EDTA) into desired wells; • Add 10 μL of Enzyme/Substrate stock into each well; • Add 10 μL of ATP Diluents to initiate the enzyme reaction and votex the plate immediately on a plate shaker; • For the wells to make standard curve, add 5 μL of 5% DMSO, 10 μL of assay buffer and 10 μL of ATP standard curve stock. • Incubate the plate for 45 min at 28[…] on a plate shaker in a low speed.
• Detection Mix Preparation: The mixture is made by dilution with MilliQ water; as following: ADP Alexa633 tracer (1:100), ADP antibody (1:158), and stop & detect buffer (1:10); • Tracer Only control Preparation: The mixture is made by dilution with MilliQ water; as following: ADP Alexa633 tracer (1:100), and stop & detect buffer (1:10) • No Tracer control Preparation: stop & detect buffer is diluted with MilliQ water; by 10 fold. • Add 25 μL of detection mix, Tracer Only control and No Tracer control into corresponding wells, respectively; • Incubate at 28 °C for 1 h, on a plate shaker in a low speed; • Measure florescence polarization (FP) on TECAN F500. Excitation wavelength: 610 nm, Emission wavelength: 670 nm.
as §2

The next test concerns the target FGFR3 kinase (Homo sapiens, UniProt P22607). The test can be described thus: Z-Lyte Kinase Assay of FGFR3. It counts as biochemical. As for the experimental part: Z-Lyte Kinase Assay of FGFR3
The final concentrations are 1, 0.33, 0.11, 0.037, 0.012, 0.004, 0.0014, 0.00046 μM, and the final concentration of DMSO is 2%. • 3) Kinase/Peptide Mixture (P/K solution): Prepare Kinase/Peptide Mixture by diluting the kinase to 0.7 μg/ml and the Z-LYTE™ Tyr 4 peptide to 4 μM in 1.33× Kinase Buffer. Mix gently by pipetting. • 4) Phospho-peptide Solution (PP solution): Add 0.4 μl of Z-LYTE™ Tyr 4 Phospho-peptide to 99.6 μl of 1.33× Kinase Buffer. • 5) ATP Solution: Prepare ATP Solution by diluting the 10 mM of ATP in 1.33× Kinase Buffer to 300 uM. • 6) Development Solution: Dilute Development Reagent B with Development Buffer as 1:128.
Shake the plate for 30 Sec and centrifuge (1500 rpm, 1 min) • Seal the plate to protect from the light and incubate the plate for 1 hour at RT (25-30[…]) • 2) Development reaction • Add 5 μl of the Development solution to all wells • Shake the plate for 30 Sec and centrifuge (1500 rpm, 1 min) • Seal the plate to protect from the light and incubate the plate for 1 hour at RT (25-30[…]) • 3) Stop and read • Add 5 μl of the Stop reagent to all wells • Shake the plate for 30 Sec and centrifuge (1500 rpm, 1 min) • Measure the value of Coumarin (Ex400 nm, Em445 nm) and fluorescein (Ex400 nm, Em520 nm), respectively.
Inhibition rate(IR)=1−%Photest Cpd/%PhoC2
• determined with add-in software for Microsoft Excel, XLfit™ (version 2.0) from ID Business Solutions (Guildford, UK)

A further test deals with KG-1. The experiment in a line: Cellular Proliferation Assay (Cell Counting Kit-8), KG-1. Particulars: Homo sapiens, KG1 cells, 72 hours. It counts as cell-based. As for the experimental part:
(§3) Cellular Proliferation Assay
(§4) • KG-1 (ATCC Accession No. CCL-246), • SNU-16 (ATCC Accession No. CRL-5974), • RT-112 (ECACC Accession No. 85061106)
(§5) • FGFR related cancer cell proliferation is measured in 96-well plates using Cell Counting Kit-8 (Dojindo CK04-13). • Seed 30000 cells/well of KG1, 5000 cells/well of SNU16, and 1000 cells/well of RT112 in a volume of 100 μL/well in growth media. • After 24 hours, dilute the compound to 10, 3.3, 1.1, 0.37, 0.12, 0.04, 0.013, 0.004 μM, keeping the DMSO concentration at 5%. • Add 10 μL of 8-point compound series to the wells of culturing cells. • Incubate at 37° C. and 5% CO2 for 72 hours • Add 10 μL/well of CCkit8 and incubate at 37° C. and 5% CO2 for an hour • Detect the optical density of each well at 450 nm on Labsystems Multiskan K3.
(§6) • ODcompound well represents the optical density of cells treated with compound. • ODcell well represents the optical density of cells without compounds treatment. (only 0.5% DMSO) • ODcontrol well represents the optical density of culture media background
(§7) The concentration of compound providing 50% of proliferation inhibition was calculated using Excel Fit.
A general note: Tetrazolium dyes change colour on reduction, which living cells bring about.

The test system of another test is SNU-16. The experiment in a line: Cellular Proliferation Assay (Cell Counting Kit-8), SNU-16. Particulars: Homo sapiens, SNU-16 cells, 72 hours. The test is classed as cell-based. As for the experimental part: as §3, §4, §5, §6, §7

Sequence of Recombinant human FGFR2 (P21802 22-821): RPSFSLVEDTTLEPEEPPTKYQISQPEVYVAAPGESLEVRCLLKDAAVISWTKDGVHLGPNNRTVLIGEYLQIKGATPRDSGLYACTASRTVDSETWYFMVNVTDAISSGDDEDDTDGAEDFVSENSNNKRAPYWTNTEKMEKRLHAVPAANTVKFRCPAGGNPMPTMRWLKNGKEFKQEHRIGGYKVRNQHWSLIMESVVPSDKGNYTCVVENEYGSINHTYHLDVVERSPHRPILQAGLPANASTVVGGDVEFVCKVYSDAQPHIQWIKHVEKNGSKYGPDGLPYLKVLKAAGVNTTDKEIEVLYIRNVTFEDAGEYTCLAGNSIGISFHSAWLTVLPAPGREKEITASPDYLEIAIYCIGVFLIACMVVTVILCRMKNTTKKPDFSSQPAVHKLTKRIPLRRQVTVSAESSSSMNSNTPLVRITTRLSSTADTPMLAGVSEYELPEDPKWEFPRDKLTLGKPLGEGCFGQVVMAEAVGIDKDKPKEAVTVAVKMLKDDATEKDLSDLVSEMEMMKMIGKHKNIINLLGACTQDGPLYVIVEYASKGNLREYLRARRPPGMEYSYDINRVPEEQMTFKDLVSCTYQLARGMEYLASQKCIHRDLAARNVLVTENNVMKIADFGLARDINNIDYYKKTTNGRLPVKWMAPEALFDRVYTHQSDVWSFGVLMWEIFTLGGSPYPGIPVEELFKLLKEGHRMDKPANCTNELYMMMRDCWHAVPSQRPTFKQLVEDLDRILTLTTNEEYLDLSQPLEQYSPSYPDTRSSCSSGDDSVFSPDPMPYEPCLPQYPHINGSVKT
Sequence of FGFR3 kinase (P22607 23-806): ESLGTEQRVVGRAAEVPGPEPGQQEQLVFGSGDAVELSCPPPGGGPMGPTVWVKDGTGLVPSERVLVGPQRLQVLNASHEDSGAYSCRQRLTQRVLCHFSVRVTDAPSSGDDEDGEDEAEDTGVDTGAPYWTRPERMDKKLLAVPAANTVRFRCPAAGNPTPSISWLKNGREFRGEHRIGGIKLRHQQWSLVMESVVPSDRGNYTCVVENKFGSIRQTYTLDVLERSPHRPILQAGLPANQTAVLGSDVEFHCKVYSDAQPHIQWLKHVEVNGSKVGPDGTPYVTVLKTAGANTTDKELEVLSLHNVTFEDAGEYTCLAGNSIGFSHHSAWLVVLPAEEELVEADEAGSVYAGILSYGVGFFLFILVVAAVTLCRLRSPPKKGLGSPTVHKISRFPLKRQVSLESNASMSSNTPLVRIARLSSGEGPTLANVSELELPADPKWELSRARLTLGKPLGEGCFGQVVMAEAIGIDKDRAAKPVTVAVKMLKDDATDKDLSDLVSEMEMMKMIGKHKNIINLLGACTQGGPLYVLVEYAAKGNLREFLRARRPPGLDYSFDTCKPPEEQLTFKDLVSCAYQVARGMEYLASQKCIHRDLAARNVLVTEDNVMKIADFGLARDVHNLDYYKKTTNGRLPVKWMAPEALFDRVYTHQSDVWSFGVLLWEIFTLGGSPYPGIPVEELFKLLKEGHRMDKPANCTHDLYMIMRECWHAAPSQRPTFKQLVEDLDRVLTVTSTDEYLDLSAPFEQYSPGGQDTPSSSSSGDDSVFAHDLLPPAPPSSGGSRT
Sequence of Recombinant human FGFR1 (P11362 22-822): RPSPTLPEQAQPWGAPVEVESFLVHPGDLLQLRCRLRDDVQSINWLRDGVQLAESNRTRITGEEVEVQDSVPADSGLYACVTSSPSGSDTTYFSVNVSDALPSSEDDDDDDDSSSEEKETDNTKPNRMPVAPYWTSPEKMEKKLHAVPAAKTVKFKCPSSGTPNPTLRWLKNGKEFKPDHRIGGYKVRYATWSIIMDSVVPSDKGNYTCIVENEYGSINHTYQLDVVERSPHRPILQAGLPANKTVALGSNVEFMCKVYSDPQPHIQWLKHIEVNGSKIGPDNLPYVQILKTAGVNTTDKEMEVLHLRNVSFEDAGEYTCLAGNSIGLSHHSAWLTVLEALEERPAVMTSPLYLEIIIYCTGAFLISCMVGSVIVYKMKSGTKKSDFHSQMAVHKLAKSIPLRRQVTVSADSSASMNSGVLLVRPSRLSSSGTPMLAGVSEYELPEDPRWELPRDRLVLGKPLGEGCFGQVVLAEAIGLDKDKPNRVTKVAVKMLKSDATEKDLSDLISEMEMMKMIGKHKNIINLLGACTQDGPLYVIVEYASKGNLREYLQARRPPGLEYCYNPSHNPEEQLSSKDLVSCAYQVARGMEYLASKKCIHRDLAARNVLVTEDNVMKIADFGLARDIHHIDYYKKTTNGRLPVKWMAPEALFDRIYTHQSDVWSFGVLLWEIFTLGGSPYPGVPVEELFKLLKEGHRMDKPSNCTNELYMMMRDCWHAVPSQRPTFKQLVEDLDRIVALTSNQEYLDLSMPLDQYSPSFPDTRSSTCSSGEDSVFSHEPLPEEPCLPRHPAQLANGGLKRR

Broadly, the IC50 is the midpoint of a concentration-inhibition curve. Turning to `CCN1CCN(c2ccc(Nc3ncc(CCc4cc(OC)cc(C(=O)NOC)c4)cn3)cc2)C[C@H]1C` [Compound 48], the half-maximal inhibitory concentration (IC50) on Recombinant human FGFR1 was found to be 5 nM; at Recombinant human FGFR2, 5 nM; at FGFR3 kinase, 15 nM; in the test with KG-1 it was 11 nM; with SNU-16 it was 16 nM.

`CCN1CCN(c2ccc(Nc3ncc(/C=C/c4cc(OC)cc(C(=O)NOC)c4)cn3)cc2)CC1` [Compound 16]: the IC50 was found to be 12 nM at Recombinant human FGFR1; 8 nM at Recombinant human FGFR2; 16 nM against FGFR3 kinase; 13 nM in the test on KG-1; 17 nM in the test with SNU-16.

For `CCN1CCN(c2ccc(Nc3ncc(CCc4cc(OC)cc(C(=O)NOC)c4)cn3)cn2)CC1` [Compound 42], the IC50 is 2 nM on Recombinant human FGFR1; 4 nM on Recombinant human FGFR2; 8 nM on FGFR3 kinase; 11 nM in the test with KG-1; 15 nM in the test on SNU-16.

On to `CCN1CCN(c2ccc(Nc3ncc(CCc4cc(OC)cc(C(=O)NC5CC5)c4)cn3)cc2)CC1` [Compound 46], for which the IC50 on Recombinant human FGFR1 worked out at 132 nM; at Recombinant human FGFR2 it was 34 nM; against FGFR3 kinase, 61 nM; with KG-1 it was 59 nM; with SNU-16, 113 nM.

Consider `CCN1CCN(c2ccc(Nc3ncc(CCc4cc(OC)cc(C(=O)NOC)c4)cn3)cc2)CC1` [Compound 17], for which the IC50 was determined as 4 nM at Recombinant human FGFR1; 6 nM at Recombinant human FGFR2; 9 nM on FGFR3 kinase; 9 nM with KG-1; 12 nM in the test on SNU-16.

`CCN1CCN(c2cccc(Nc3ncc(CCc4cc(OC)cc(C(=O)NC)c4)cn3)c2)CC1` [Compound 9, 3-(2-(2-((3-(4-ethylpiperazin-1-yl)phenyl)amino)pyrimidin-5-yl)ethyl)-5-methoxy-N-methylbenzamide]: the IC50 amounted to 38 nM on Recombinant human FGFR1; 28 nM at Recombinant human FGFR2; 64 nM against FGFR3 kinase; 98 nM in the test on KG-1; 44 nM in the test with SNU-16.

As for `CCN1CCN(c2ccc(Nc3ncc(CCc4cc(C(=O)NOC)cc(OC)c4Cl)cn3)cc2)CC1` [Compound 59], the IC50 at Recombinant human FGFR1 came out at 3 nM; on Recombinant human FGFR2, 2 nM; at FGFR3 kinase, 2 nM; in the test with KG-1, 2 nM; with SNU-16, 4 nM.

In the case of `CCN1CCN(c2ccc(Nc3ncc(CCc4cc(C(=O)NC)cc(OC)c4Cl)cn3)cc2)CC1` [Compound 56], the IC50 at Recombinant human FGFR1 amounted to 4 nM; at Recombinant human FGFR2 it was 4 nM; against FGFR3 kinase it was 9 nM; in the test with KG-1, 7 nM; with SNU-16, 17 nM.

For `CCN1CCN(c2ccc(Nc3ncc(CCc4cc(C(=O)NOC)cc(OC)c4C)cn3)cc2)CC1` [Compound 52], the IC50 is 1 nM at Recombinant human FGFR1; 2 nM on Recombinant human FGFR2; 5 nM against FGFR3 kinase; 4 nM in the test on KG-1; 5 nM in the test with SNU-16.

Regarding `CONC(=O)c1cc(CCc2cnc(Nc3ccc(N4CCN(CCO)CC4)cc3)nc2)cc(OC)c1` [Compound 19, 3-(2-(2-((4-(4-(2-hydroxyethyl)piperazin-1-yl)phenyl)amino)pyrimidin-5-yl)ethyl)-N,5-dimethoxybenzamide], the IC50 at Recombinant human FGFR1 worked out at 5 nM; on Recombinant human FGFR2, 5 nM; on FGFR3 kinase it was 11 nM; in the test with KG-1, 19 nM; with SNU-16, 22 nM.

Take `CONC(=O)c1cc(CCc2cnc(Nc3ccc(OC)cc3)nc2)cc(OC)c1` [Compound 106]: the IC50 on Recombinant human FGFR1 was 10 nM; at Recombinant human FGFR2, 7 nM; at FGFR3 kinase, 35 nM; in the test with KG-1, 40 nM; in the test with SNU-16, 33 nM.

`CONC(=O)c1cc(CCc2cnc(Nc3ccc(OCCN4CCCC4)cc3)nc2)cc(OC)c1` [Compound 43]: the IC50 at Recombinant human FGFR1 came to 16 nM; at Recombinant human FGFR2, 10 nM; against FGFR3 kinase, 48 nM; in the test on KG-1, 69 nM; in the test on SNU-16 it was 33 nM.

Turning to `CCN1CCN(c2ccc(Nc3ccc(CCc4cc(C(=O)NOC)cc(OC)c4C)cn3)cc2)CC1` [Compound 47], the IC50 at Recombinant human FGFR1 amounted to 6 nM; on Recombinant human FGFR2 it was 6 nM; at FGFR3 kinase, 8 nM; in the test on KG-1 it was 63 nM; with SNU-16, 74 nM.

Consider `CNC(=O)c1cc(CCc2cnc(Nc3ccnnc3)nc2)c(F)c(OC)c1` [Compound 61], for which the IC50 is 54 nM at Recombinant human FGFR1; 17 nM on Recombinant human FGFR2; 62 nM at FGFR3 kinase; 400 nM in the test on KG-1; 158 nM in the test with SNU-16.

For the compound `CNC(=O)c1cc(CCc2cnc(Nc3ccn(C)c(=O)c3)nc2)c(F)c(OC)c1` [Compound 93], the IC50 was determined as 18 nM on Recombinant human FGFR1; 9 nM on Recombinant human FGFR2; 11 nM against FGFR3 kinase; 125 nM in the test on KG-1; 47 nM with SNU-16.

In the case of `CCN1CCN(c2ccc(Nc3ncc(CCc4cc(C(=O)NC5CC5)cc(OC)c4F)cn3)cc2)CC1` [Compound 57], the IC50 turned out to be 8 nM on Recombinant human FGFR1; 9 nM at Recombinant human FGFR2; 14 nM on FGFR3 kinase; 16 nM with KG-1; 32 nM in the test with SNU-16.
